Results from patent US20110230407A1, “HEPATOCYTE GROWTH FACTOR PATHWAY ACTIVATORS IN DEMYELINATING DISEASES AND CENTRAL NERVOUS SYSTEM TRAUMA” (priority 2005, published 2011).

Experiments:
Type in all cases: cell-based
smooth muscle cells = assay: Mitogenesis in smooth muscle cells lacking the Met receptor
Schwann cells [1] = assay: Schwann cell migration, Migration Chamber; details: 22 hours, quantified with Calcein; FIG. 7
Description: HGF/SF mimetic recapitulates HGF/SF activity in Schwann cells. To compare the direct effects of HGF/SF mimetic and HGF/SF on cell migration, an in vitro migration assay was employed using a Migration Chamber (BD Biosciences). 50,000 cells were seeded in the inner chamber for 22 hours in the presence of 0.4% or 10% FBS, HGF/SF, or mimetic. Cell number was quantified with […] Calcein using a fluorescence plate reader.

Schwann cells [2] = assay: H2O2-induced apoptosis of Schwann cells (Apo-ONE Assay kit); details: 0.5 mM H2O2 for 2 hours; HGF 50 ng/ml, mimetic 10 micromolar; FIG. 1
Description: HGF and small molecule HGF/SF mimetic protect Schwann cells against H2O2-induced apoptosis. Schwann cells were seeded in 96 well plates at a density of 5000 cells/well, overnight in serum-free media. Cells were treated with 0.5 mM H2O2 for 2 hours in the presence of vehicle (Veh), HGF (50 ng/ml) or HGF/SF mimetic (10 micromolar). Cells were assayed for apoptosis using the Apo-ONE Assay kit (Promega).

oligodendrocytes = assay: Myelin production by fluoromyelin staining, oligodendrocytes; details: HGF/SF 50 ng/ml, mimetic 5 μM, 4 hours
Human neurons = assay: Neuronal axon growth and cell density in human neurons; details: 48 hours, FIG. 5
Description: In this experiment, the ability of HGF/SF and mimetic to activate axonal growth was assessed. Human neurons (ATCC) were seeded in 6-well plates (1000 cell/well) in media containing 1% FBS. Cells were treated with HGF/SF (50 ng/ml) or mimetic (5 micromolar) for 48 hours. […] Cell shape, size, and density are clearly different in the presence of HGF/SF and mimetic compared with control. […] In one experiment, neurons were incubated with conditioned media from Schwann cells (FIG. 5, right field). […] Thus, secreted growth factors present in Schwann cell media are ineffective (or are at least effects are below the level of detection) as cell mitogens.

[3] = system: mouse primary oligodendrocytes; assay: Oligodendrocyte proliferation, WST1 reagent; details: treated 16-24 hours, serum-free; FIGS. 3C and 3D
Text: (§1) Small molecule HGF/SF agonist mimics HGF/SF's pro-proliferative effects. Oligodendrocytes and Schwann cells are both cells that support neuronal function by ensheathing neuronal axons with myelin. An individual supporting cell comprises a single segment of an axon's myelin sheath and is active in facilitating axonal growth. An important aspect of HGF/SF activity is this growth factor's ability to induce oligodendrocyte and Schwann cell proliferation. In order to evaluate small molecule HGF/SF mimetics for potential HGF/SF-like bioactivity, rat RSC96 Schwann cells (ATCC, Manassas, Va.) or mouse primary oligodendrocytes (Celprogen, San Pedro, Calif.) were seeded in 96-well plates at 5000 cells/well in serum-free medium for 16 hours. Cells were treated with test compound or HGF/SF (positive control) for 16-24 hours. [^3H]-thymidine was added to the medium with Schwann cells, WST1 cell proliferation reagent (Roche, Indianapolis, Ind.) was added to oligodendrocytes, and incubation was continued for another 4-5 hours. Schwann cells were washed with PBS and harvested. [^3H]-thymidine incorporation was determined and used as a measure of proliferation (increased DNA synthesis). Cells with WST1 reagent were read using a plate reader at an OD of 490 nm.

Schwann cells [4] = assay: Myelin production by fluoromyelin staining, Schwann cells; details: 4 hours
Description: HGF/SF and small molecule HGF/SF mimetic increase myelin production in Schwann cells. It is well-known that the primary function of oligodendrocytes and Schwann cells is myelin production. […] Cells were seeded in 3 well chamber slides at a density of 50,000 cells/well in serum free media for 24 hours. Then HGF/SF (50 ng/ml) or a small molecule HGF/SF mimetic (5 μM) were added to the same medium and cells incubated for an additional 4 hours. Cells were washed, and fluoromyelin (Molecular Probes) was added to each well (30 min exposure at room temperature), and cells observed under a confocal microscope (Olympus). […] To obtain semi-quantitative measurements of this increase in the fluoromyelin signal, a second experiment was performed. Schwann cells were seeded in 6 well plates at a density of 4×10^5 cells/well and treated with HGF (50 ng/ml) or mimetic (5 uM) for 4 hours. Fluoromyelin staining was performed as described above and relative fluorescence was measured using a fluorescence plate reader.

NGF, BDNF, and NT-4 = assay: Expression of neurotrophic growth factors in Schwann cells, Western blot; details: Schwann cell protein extracts; FIG. 6
Text: HGF/SF- and HGF/SF mimetic-activated Schwann cells show increased expression of neurotrophic growth factors.

[5] = system: fibroblasts lacking the Met receptor; assay: Mitogenesis in fibroblasts lacking the Met receptor
Description: To determine whether mimetic-mediated Met phosphorylation induces similar intracellular signaling cascades as HGF/SF, and to assess whether these signaling events convey biologic activity, experiments were carried out using an Akt inhibitor and the phosphoinositide3-kinase inhibitor Wortmannin.

rat RSC96 Schwann cells = assay: Schwann cell proliferation, [3H]-thymidine incorporation; details: treated 16-24 hours, serum-free; FIGS. 3A and 3B
Text: as §1

HGF/SF: Scatter factor / hepatocyte growth factor, pleiotropic growth factor, heparin binding heterodimeric protein signalling through Met
mitogenesis in smooth muscle cells, which also lack the Met receptor (smooth muscle cells): A similar result was obtained
Schwann cell migration (Schwann cells [1]): similarly increase Schwann cell migration
cell viability after H2O2 (Schwann cells [2]): substantial improvement in cell viability
myelin production in oligodendrocytes (oligodendrocytes): induce myelin production
neuronal cell proliferation / cell density (Human neurons): activate neuronal cell proliferation
neuronal axon growth (Human neurons; HGF/SF 50 ng/ml, mimetic 5 micromolar, 1% FBS): activate neuronal axon growth
oligodendrocyte proliferation (WST1, OD 490 nm) [3]: activate
increase in the fluoromyelin signal, relative fluorescence by plate reader (Schwann cells [4]; HGF 50 ng/ml, mimetic 5 uM, FIG. 2B): 3 fold
fluoromyelin signal, confocal microscope (Schwann cells [4]; HGF/SF 50 ng/ml, mimetic 5 μM, FIG. 2A): intense increase
expression of NGF, BDNF, and NT-4 cytokines (NGF, BDNF, and NT-4): over-express
mitogenesis in fibroblasts lacking the Met receptor [5]: neither the mimetic nor HGF/SF activated mitogenesis
Schwann cell proliferation ([3H]-thymidine incorporation) (rat RSC96 Schwann cells): activate
